Tests used:
[1] = system: bile duct cannulated rats; assay: Output of biliary iron by graphite furnace atomic absorption analysis; format: in vivo; settings: after administration of Sn-PP; representative study, typical of all animals studied
[2] = system: bile duct cannulated rats; assay: Excretion of heme and bilirubin in bile after infusion of heat-damaged erythrocytes; format: in vivo
[3] = system: bile duct cannulated rats; assay: Excretion of heme and bilirubin in bile after infusion of exogenous heme

| Compound | output of biliary iron [1] | biliary heme excretion ([2]; 8 rats, heat-damaged erythrocytes i.v. bolus (equivalent to 8.5 umol heme/kg b.w.) plus Sn-PP 10 umol/kg b.w. i.v., pyridine hemochromogen method) | combined amounts of heme plus bilirubin in bile ([2]; heat-damaged erythrocytes plus Sn-PP 10 umol/kg b.w. i.v., average, similar in the control group) | increase in biliary bilirubin output ([2]; heat-damaged erythrocytes plus Sn-PP 10 umol/kg b.w. i.v., in all but one Sn-PP treated animal) | biliary heme excretion ([3]; 5 rats, heme 6.1 µmol/kg b.w. i.v. bolus plus Sn-PP 10 µmol/kg b.w. i.v. at the same time) | amounts of heme excreted in bile relative to control animals treated with heme alone ([3]; heme 6.1 µmol/kg b.w. plus Sn-PP 10 µmol/kg b.w. i.v.) | increase in biliary bilirubin resulting from the infusion of heme ([3]; heme 6.1 µmol/kg b.w. plus Sn-PP 10 µmol/kg b.w. i.v., all animals) | amounts of heme excreted in bile ([3]; heme 6.1 µmol/kg b.w. plus Sn-PP 10 µmol/kg b.w. i.v., mean) | total amount of exogenous heme recovered in the bile as both heme and bilirubin ([3]; heme alone, 6.1 µmol/kg b.w. i.v. bolus, average) | total amount of heme excreted in the bile ([3]; heme alone, 6.1 µmol/kg b.w. i.v. bolus, average of 5 rats) |
| --- | --- | --- | --- | --- | --- | --- | --- | --- | --- | --- |
| C=Cc1c2[n-]c(c1C)/C=c1\[n-]/c(c(C)c1C=C)=C\c1[n-]c(c(CCC(=O)O)c1C)C=c1[n-]/c(c(C)c1CCC(=O)O)=C\2.[Sn+4] [Sn-PP, tin protoporphyrin-IX] | incresed markedly | prompt and marked increase | about 50 % of the dose of heme administered | greatly diminished | prompt and marked increase | 3-4 fold | diminished | 51 % of the dose of heme injected |  |  |
| C=CC1=C(C)c2cc3[n-]c(cc4[n-]c(cc5nc(cc1n2)C(C)=C5C=C)c(C)c4CCC(=O)O)c(CCC(=O)O)c3C.[Fe+2] [heme, ferroprotoporphyrin IX] |  |  |  |  |  |  |  |  | 32 % of the dose administered | 14 % of the dose injected |

Source: patent EP0199888B1, “Control of heme and iron concentrations in body tissues” (THE ROCKEFELLER UNIVERSITY, priority 1985, dated 1986)
